The values below come from patent US20250170239A1, “CELLULAR REPROGRAMMING BY TARGETING THE GOLGI APPARATUS” (MUSC Foundation for Research Development, priority 2023, published 2025).

Test [1] deals with Pmel CD8+ T cells. The conditions noted are these: for Golgi stress (GM130 expression): TME exhaustion model. The source says:
The solid tumor microenvironment is characterized as being highly immunosuppressive, leading to T cell exhaustion. Thus, an in vitro model of TME-induced T cell exhaustion using supernatants collected from B16-F10 murine melanoma cells along with chronic antigen stimulation was used.25 Pmel CD8+ T cells were activated and cultured under optimal culture conditions, with tumor supernatant plus repeated stimulation with gp100, or with tumor supernatant plus repeated stimulation with gp100 plus H2S donor (FIG. 12I). This model was used to determine the impact of T cell exhaustion on Cbs expression and H2S production by gating Pmel T cells on TIM3+PD1+ (terminally exhausted) and TIM3−PD1− cells.
Once the tumors reached a size of approximately 150 mm2, the mice were euthanized and the tumors were removed. The tumors were then processed into single cell suspension using a mouse tumor dissociation kit (Miltenyi, #130-096-730). […] After 5 days of culture without changing the media, the supernatant was removed from the wells and spun down to remove any tumor cells. 3-day activated Pmel T cells were then resuspended in the tumor supernatant along with 0.1 ug/mL of gp100 antigen. To promote chronic antigen stimulation, 0.1 μg/mL gp100 was added every day for 4 days. After 4 days of culture with tumor supernatant and chronic stimulation, the T cells were removed and analyzed for expression of exhaustion markers and functional assays.

Test [2] deals with Pmel CD8+ T cells. Briefly: H2O2-induced oxidative stress and antioxidant capacity in Pmel T cells.
Experimental: (FIG. 20A) Cells treated for 12-hours with H2O2 (50 mM). FACS analysis quantifying 7-AAD+AnnexinV+ and 7−AAD−AnnexinV− populations (n=3). FIG. 20B, mRNA levels of GCLM and GCLC. (FIG. 20C) Measurements of surface thiols by AlexaFluor-488 C5 Maleimide (n=3) and intracellular glutathione by ThiolTracker Violet (n=4). […] (FIG. 20E) Fold increase in MFI for phosphorylated-PERK, phosphorylated-IRE1a, and ATF4 after 12-hr. incubation with 50 mM H2O2 (n=3). FIG. 20F, FACS quantification of cells expressing high phosphorylated-PERK levels after exhaustion assay (n=2). (FIG. 20G) Percentage of cells expressing high phosphorylated-PERK in Pmel cells overexpressing Cbs compared to Pmel cells transduced with control lentivirus (n=3). (FIG. 20H) Fold change in GM130 MFI in Pmel cells using exhaustion assay (n=3). (FIG. 20I) Cell viability and mitochondrial ROS following monensin treatment (1 mM). […] (FIG. 20K) GM130 MFI values in Pmel T cells overexpressing Cbs compared to control cells after transfer into tumor-bearing mice and TIL isolation after 7 days (n=4). (FIG. 20L) Pmel T cells cultured with B16-F10 supernatant and gp100, followed by FACS sorting for PD1+TIM3+ and PD1−TIM3− cells. Sorted cells stained with anti-Giantin antibody and analyzed for Golgi area via ImageStream. (FIG. 20M) FACS analysis of GM130 expression in PD1+TIM3+ and PD1−TIM3− populations. (FIG. 20N) Pmel cells treated with 1 mM monensin and analyzed for intracellular ROS (DCFDA). (FIG. 20O) FACS analysis of GM130 expression in Pmel cells treated with 50 mM H2O2 (6-hours). Data represent mean±SEM. Analyzed by two-sided Student's t-test or one-way ANOVA. ns, p-value >0.05; p-value *≤0.05; **≤0.01; ***≤0.001; ****≤0.0001.
Another test has as its system Foxo1. Kind of test: Nuclear vs cytoplasmic Foxo1 by western blot. Format: cell-based, mouse. The conditions noted are these: GYY4137 0.5 mM, 3 days. On the procedure:
(FIG. 18C) NAD+ and nicotinamide quantification from metabolomics dataset.
For evaluation of the protein level, cell pellets were washed in PBS and lysed in RIPA buffer (Thermo Fisher Scientific, Waltham, MA), including protease/phosphatase inhibitors, vortexed, and incubated for 20 minutes on ice. Cell lysates were then centrifuged at 12,000 rpm for 15 min at 4° C. The supernatants were collected, and proteins were quantified with a BCA protein assay kit (Thermo Fisher Scientific, Waltham, MA). For immunoblot analyses, 20 μg of protein lysates per sample were denatured in 4× Loading dye and boiled using a heating block at 95 degrees for 10 minutes before loading to SDS gradient gels 4%-20% (Bio-Rad Criterion, 1h runs). Gels were semi-dry transferred onto PVDF, and the membranes were blocked with 3% milk in 0.1% TBST. The membraneNext, the membrane was probed with the following primary antibodies: anti-Prdx4 (Proteintech, 10703-1-AP), anti-eIF2a (Cell Signaling Technology, #9722), or anti-β-Actin (Signaling Technology, #4967L) overnight at 4° C. followed by one-hour incubation with HRP-conjugated secondary antibody (Cell Signaling Technology, Danvers, MA) and using a Clarity Western ECL Substrate (Bio-Rad, Hercules, CA).
In general terms: In western blotting, separated proteins are transferred to a membrane and probed.

Test [3] relates to Pmel CD8+ T cells. As to conditions: 3 days gp100 and IL2 +/− 0.5 mM GYY4137. The protocol: Different metabolites' intracellular levels were determined by performing comprehensive hydrophilic metabolites analysis using LC/MS platform (Metabolomics Core Facility, Northwestern University). Data were then analyzed using MetaboAnalyst software. Samples were loaded equivalently across the platform and normalized to Bradford values before statistical analysis.

The next test relates to Pmel T cells. On the procedure:
On day 3, the cells were collected for RNA-sequencing analysis (n=3 independent samples). (FIG. 14A) Principle component analysis (PCA) of control versus H2S-treated samples. […] (FIG. 14E) Schematic of experimental design for cytokine and translation assays. (FIG. 14F) Pmel CD8+ T cells were activated for 3 days with gp100 and IL2+/−0.5 mM GYY4137. On day 3, the cells were washed and re-stimulated with gp100 for 4 hours, followed by measurement of cytokine production via FACS. (FIG. 14G) Active protein translation was assessed using Click-iT Plus OPP Alexa Fluor 647 Protein Synthesis Assay Kit (ThermoFisher) (n=3 independent samples) in Pmel T cells after re-stimulation (n=3 independent samples). (FIG. 14H) Levels of EIF2a, phosphorylated 4EBP1, and phosphorylated rS6 evaluated via FACS in Pmel T cells after re-stimulation (n=4 independent samples). (FIG. 14I) Pmel CD8+ T cells were activated for 2 days with gp100 and IL2 followed by transduction with either control lentivirus or CBS-expressing lentivirus. On day 5, the cells were washed and re-stimulated with gp100 for 4 hours. Quantification of protein translation assessed using Click-iT Plus OPP Alexa Fluor 647 Protein Synthesis Assay Kit and quantification intracellular cytokines assessed using FACS (n=3 independent samples). MFI represents mean fluorescence intensity.
Pmel T cells were re-stimulated with gp100 peptide (0.1 μg/mL) and Click-iT™ Plus OPP Alexa Fluor™ 647 Protein Synthesis Assay Kit (ThermoFisher Scientific #C10458) was used to measure protein translation using flow cytometry following the manufacturer's protocol.

For a further test, the system named is Golgi^lo T cells. The conditions noted are these: GYY4137 (0.5 mM) 3 days, stimulated with gp100.
Where [4] appears, read: tumor supernatant + repeated gp100 +/− 0.5 mM GYY4137.

Read-outs that look alike come from different tables or passages of the source.

Text for Golgi^lo T cells: Cells were subsequently stimulated with gp100 antigen and analyzed for production of cytokines by FACS (n=4). (FIG. 25B) Quantification of FACS MFI values for MitoTracker Deep Red FM stain in Golgi^hi vs. Golgi^lo cells (n=4 independent samples). (FIG. 25C) Real-time flux in OCR measured using Seahorse metabolic flux analysis. Shown is the quantification of mean oxygen consumption rate (OCR) throughout the assay, spare respiratory capacity (SRC), maximal respiration, and basal respiration (n=experimental replicates representative of 3 separate experiments). (FIG. 25D) FACS sorted Golgi^hi vs. Golgi^lo melanoma epitope gp100 TCR reactive CD8+ T cells from Pmel mouse were analyzed using transmission electron microscopy (TEM) to evaluate mitochondria and Golgi morphology. (FIG. 25E-25H) Global metabolomics analysis was performed on Golgi^hi vs. Golgi^lo Pmel T cells and analyzed for PCA (FIG. 25E) and pathway enrichment (FIG. 25F). […] (FIGS. 25M and 25N) Human CD19 CAR-T cells were expanded and sorted into Golgi^hi and Golgi^lo based on BODIPY TR Ceramide dye fluorescence and were co-cultured at a 1:1 ratio with Raji cells. (FIG. 25M) The percentage of viable Raji cells remaining after 24 hours was analyzed using FACS. (FIG. 25N) Expression of Perforin and Granzyme B was assessed using FACS in sorted CD19 CAR-T cells following co-culture with Raji cells. […]

As to `C1COCCN1.COc1ccc(P(=S)(S)N2CCOCC2)cc1` (stereo not shown) [GYY4137], in the test with Pmel CD8+ T cells [1], the “Golgi stress (GM130 expression)” value was “reverted”. For the same compound, in the test on Pmel CD8+ T cells [1] (listed as H2S donor), the “Golgi stress (GM130 expression)” value was “decrease in GM130 expression was mitigated”. For the same compound, the “ER stress (high phosphorylated-PERK)” value in the test on Pmel CD8+ T cells [1] (in vitro TME exhaustion model) is listed as “mitigated”. For the same compound, in the test on Pmel CD8+ T cells [1] (setting [4]), the Tcm phenotype entry is “preserve the Tcm phenotype”; the “expression of exhaustion markers PD1, TIM3, Lag3, CD38” value is “decreased expression of T cell exhaustion markers PD1, TIM3, Lag3, and CD38”. Moreover, the “apoptotic cell death (7-AAD, AnnexinV)” value in the test with Pmel CD8+ T cells [2] (12-hours H2O2 (50 mM), +/− 0.5 mM GYY4137) is reported as “significant decrease in apoptotic cell death”. The “expression of GCLC and GCLM (mRNA)” value in the test with Pmel CD8+ T cells [2] (+/− 0.5 mM GYY4137) is “increased expression”. The “intracellular glutathione (iGSH)” value in the test on Pmel CD8+ T cells [2] (ThiolTracker Violet) is listed as “increase”. Further, the “nuclear localization of Foxo1” value with Foxo1 was “increased nuclear localization of Foxo1”. Besides, in the test with Pmel CD8+ T cells [3], the “levels of NAD+” value is reported as “increased levels of NAD+”, the levels of nicotinamide entry is reported as “decreased levels of nicotinamide” and the metabolite profile result was “distinct profile of metabolites”. In the test with Pmel T cells (FACS after re-stimulation), the “phosphorylation of 4EBP1” value is reported as “increased phosphorylation of 4EBP1”; the “total EIF2α and phosphorylated S6 ribosomal protein” value is “increased total levels of EIF2α and phosphorylated levels of S6 ribosomal protein”. The “overall protein translation (OPP incorporation)” value in the test with Pmel T cells (upon re-stimulation with cognate antigen) was “significantly enhanced upregulation of overall protein translation”. Moreover, the “effector functions (cytokines by FACS) of Golgi^lo T cells” value with Golgi^lo T cells is on record as “partial restoration of their effector functions”.
